Experimental data from patent US20230104487A1, “11-(4-CHLOROPHENYL)-4-(2,3-DIHYDRO-1H-INDOLE-1-CARBONYL)-3,11-DIMETHYL-5,10,DIOXATRICYCLO[7.4.0.0,2,6,]TRIDECA-1,3,6,8-TETRAEN-13-ONE AND DERIVATIVES AS DESTABILIZER OF CRY1 FOR THE TREATMENT OF CIRCADIAN RHYTHM ASSOCIATED DISEASES AND DISORDERS” (KOC UNIVERSITESI, priority 2019, published 2023).
Entries after “also recorded” stand apart in the source; their conditions may differ.

Target: T1, CRY1 (Mus musculus, UniProt P97784)
T1 sequence (P97784 1-606): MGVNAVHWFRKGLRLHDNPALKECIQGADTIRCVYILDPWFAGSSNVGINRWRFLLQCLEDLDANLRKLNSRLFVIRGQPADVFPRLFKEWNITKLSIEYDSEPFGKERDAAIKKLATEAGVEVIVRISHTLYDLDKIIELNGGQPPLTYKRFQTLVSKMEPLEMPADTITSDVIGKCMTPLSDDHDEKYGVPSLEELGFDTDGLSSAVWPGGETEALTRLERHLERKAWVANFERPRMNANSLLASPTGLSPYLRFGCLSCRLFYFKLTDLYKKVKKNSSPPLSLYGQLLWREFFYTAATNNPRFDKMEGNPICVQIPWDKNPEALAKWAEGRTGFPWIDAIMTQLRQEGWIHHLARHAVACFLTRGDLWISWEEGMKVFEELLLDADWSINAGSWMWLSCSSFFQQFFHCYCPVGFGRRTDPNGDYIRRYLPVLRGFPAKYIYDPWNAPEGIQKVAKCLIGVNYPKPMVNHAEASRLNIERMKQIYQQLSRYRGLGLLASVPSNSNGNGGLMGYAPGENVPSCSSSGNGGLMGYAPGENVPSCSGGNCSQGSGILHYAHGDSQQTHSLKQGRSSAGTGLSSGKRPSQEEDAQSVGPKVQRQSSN
Experiment: CRY1 level in mouse liver (whole cell lysate, cytosolic and nuclear fraction)
Type: in vivo
Set-up: from tissue; host or cells: liver of C57BL/6J mice
Settings: 25 and 50 mg/kg i.p., 6 h
Method: FIGS. 5A-5G are an illustration of FORMULA I decreased the nuclear CRY1 in mice liver. FORMULA I (25 mg/kg or 50 mg/kg) or vehicle intraperitoneally administered to C57BL/6J mice. 6 h after the treated mice were sacrificed (n=3). […] FIGS. 5A-5B show an effect of FORMULA I in WCL. FIG. 5C-5D show an effect of FORMULA I in cytosolic fraction. FIGS. 5E-5F show an effect of FORMULA I in nuclear fraction of muce liver. […] (Data represent the mean±SEM, n=3 (with duplicates in RT-PCR) *: p<0.05 versus control by student t-test).
Cells were lysed in RIPA buffer (50 mM Tris, 150 mM NaCl, 1% Triton-X, 0.1% SDS) with fresh Protease inhibitor cocktail (PIC). After centrifugation at 13000 rpm for 15 minutes at 4° C., supernatant was used to determine the protein amount using Pierce Protein Assay (Thermo Scientific) according to the manufacturer's instruction. Mice liver samples were homogenized and lysed with Dounce homogenizer and RIPA buffer. After homogenization samples were incubated 10 minutes on ice. After centrifugation 13000 rpm 15 minutes at 4° C. supernatant was used for the whole cell lysate. Subcellular fractionation of liver samples: Liver samples were homogenized with cytosolic lysis buffer (10 mM HEPES pH 7.9, 10 mM KCl, 0.1 mM EDTA, 0.05% NP40, proteasome inhibitor) by pipetting 40 times with a cut tip. Then samples were incubated 10 minutes on ice and centrifuged for 3 minutes at 3000 rpm at 4° C. Supernatant was saved in a new tube, and pellet was processed for the nuclear fraction. Supernatant was centrifuged at 13000 rpm for 3 minutes at 4° C. where new supernatant saved as the cytosolic fraction. […] ECL buffer system (Advansta WesternBright) was used to visualize HRP chemi-luminescence via BioRad ChemiDoc Touch visualizer. […]
Since CRYs are stabilized and degraded differently in cytosolic and nuclear compartments, we further analyzed the level of CRY1 in the cytosolic and nuclear fraction of the mouse liver. […]

Cc1c(C(=O)N2CCc3ccccc32)oc2ccc3c(c12)C(=O)CC(C)(c1ccc(Cl)cc1)O3 (stereo not drawn) [FORMULA I, 11-(4-chlorophenyl)-4-(2,3-dihydro-1H-indole-1-carbonyl)-3,11-dimethyl-5,10,dioxatricyclo[7.4.0.0,2,6,]trideca-1,3,6,8-tetraen-13-one]
CRY1 level in cytosolic fraction of liver: not statistically significant compared to controls; also recorded: slightly decreased the CRY1 levels
CRY1 level in nuclear fraction of liver: significantly low compared to controls in dose dependent manner; also recorded: decreased the nuclear CRY1 level significantly; also recorded: selectively decrease CRY1 level in the nucleus
CRY1 level in whole cell lysate of liver: slight decrease in CRY1 levels; also recorded: slightly decreased the CRY1 levels
